# Experimental data published in article doi:10.1101/2024.12.02.625520, “Identification of Inhibitors of Chikungunya virus nsP2 ATPase” (bioRxiv, 2025).
# Like-named read-outs stand apart in the source and are kept apart here.
# Columns and labels:
# [1] = target: T1, CHIKV nsP2 ATPase (Chikungunya virus, UniProt Q8JUX6); test: Secondary CHIKV nsP2 ATPase assay (ADP-Glo); details: for Hill slope: ADP-Glo dose response
# [2] = target: T1, CHIKV nsP2 ATPase; test: High throughput nsP2 ATPase activity assay (Malachite Green)
# [3] = Kinetic solubility; details: kinetic from dmso stock
# [4] = read-out: Malachite Green % INHIBITION (ORIGINAL)
# [5] = read-out: Malachite Green % INHIBITION (RESCREEN)
# [6] = read-out: ADP-Glo IC50, Avge n=2, 1 nM CHIKV nsP2fl, 30 μM ATP, 30 min pre-incubation
# T1 sequence (Q8JUX6 536-1333): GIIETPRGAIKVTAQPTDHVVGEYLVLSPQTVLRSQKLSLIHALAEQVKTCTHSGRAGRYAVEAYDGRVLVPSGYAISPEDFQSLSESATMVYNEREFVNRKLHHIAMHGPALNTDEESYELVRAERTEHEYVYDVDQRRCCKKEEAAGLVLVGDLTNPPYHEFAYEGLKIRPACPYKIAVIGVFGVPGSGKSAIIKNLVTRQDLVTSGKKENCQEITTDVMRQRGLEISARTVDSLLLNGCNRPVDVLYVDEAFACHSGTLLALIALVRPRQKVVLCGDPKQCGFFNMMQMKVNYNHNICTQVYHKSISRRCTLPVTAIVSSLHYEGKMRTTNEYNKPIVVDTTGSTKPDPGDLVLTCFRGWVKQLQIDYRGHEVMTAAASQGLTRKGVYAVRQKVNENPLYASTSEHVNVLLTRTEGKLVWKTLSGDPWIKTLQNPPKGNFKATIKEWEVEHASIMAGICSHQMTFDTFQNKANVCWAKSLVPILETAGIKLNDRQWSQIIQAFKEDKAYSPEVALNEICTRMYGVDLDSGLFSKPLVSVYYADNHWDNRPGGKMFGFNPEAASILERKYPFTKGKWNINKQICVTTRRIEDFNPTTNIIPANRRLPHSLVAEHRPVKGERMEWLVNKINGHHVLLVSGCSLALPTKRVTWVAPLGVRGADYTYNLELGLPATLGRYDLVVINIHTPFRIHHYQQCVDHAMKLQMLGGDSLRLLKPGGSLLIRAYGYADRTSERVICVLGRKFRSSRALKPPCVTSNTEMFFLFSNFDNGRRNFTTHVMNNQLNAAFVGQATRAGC
Structure (SMILES),IC50 [1] [µM],Hill slope ([1]; Avge n=2),"inhibition at 25 µM [2, 4] [%]","inhibition at 25 µM [2, 5] [%]","IC50 [1, 6] [µM]","IC50 ([1]; read-out: ADP-Glo IC50, Avge n=2, 1 nM CHIKV nsP2fl, 30 μM ATP, 30 min pre-incubation, listed as 1798) [µM]",solubility kinetic [3] [µM]
O=c1c(O)c(-c2ccc(O)c(O)c2)oc2cc(O)cc(O)c12 [RA-0001795],26.7,0.7,62,55,,,
O=C(CN1C(=O)C2C3CCC(C3)C2C1=O)OCC(=O)c1ccc(Cl)cc1 (stereo not shown) [RA-0001796],19.9,0.6,60,55,,,
COc1ccc(OC)c(N2C(=O)/C(=C/c3ccco3)C(=O)NC2=S)c1 [RA-0001798],,1.4,79,74,3.8,< 10,
Cc1ccc(N2C(=O)/C(=C/C=C/c3ccco3)C(=O)NC2=S)cc1 [RA-0001799],,2.8,85,64,,,
CCCC(C(=O)O)N1C(=O)/C(=C/c2ccc(-c3ccc(Br)cc3)o2)SC1=S (stereo not shown) [RA-0001801],,1.4,62,55,12.8,,
O=C1c2oc3ccccc3c(=O)c2C(c2ccc(O)cc2)N1Cc1ccccc1Cl (stereo not shown) [RA-0001802],14.8,1,37,51,,,
Cc1cccc(CSc2nsc(SCc3cccc(C)c3)c2C#N)c1 [RA-0001803],,,57,61,,,
N#Cc1c(SCc2ccccc2Cl)nsc1SCc1ccccc1Cl [RA-0001804],,2.35,53,64,,,
N#Cc1c(SCc2cccc(F)c2)nsc1SCc1cccc(F)c1 [RA-0001805],,,33,51,,,
Cc1ccc(CSc2nsc(SCc3ccc(C)cc3)c2C#N)cc1 [RA-0001806],,,45,53,,,
N#Cc1c(SCc2ccccc2)cc(SCc2ccccc2)cc1SCc1ccccc1 [RA-0001807],,2,45,60,,,
Cc1c(Cl)ccc2c1NC(C(=O)O)C1CC=CC21 (stereo not shown) [RA-0001808],,,63,69,,,
Brc1ccc(-c2csc(N3CCc4ccccc4C3)n2)cc1 [RA-0001809],,,58,60,,,
CC1SC2(C(=O)Nc3ccccc32)N(CCc2c[nH]c3ccccc23)C1=O (stereo not shown) [RA-0001810],27.5,2.65,58,76,,,
Fc1cccc(Cl)c1Cn1cccc1C1=NC(CSCc2ccccc2)CO1 (stereo not shown) [RA-0001811],,,46,56,,,
CSc1ccc(Cn2cccc2C2=NC(CSCc3ccc(F)cc3)CO2)cc1 (stereo not shown) [RA-0001812],,,48,53,,,
Clc1ccccc1CSC1=NC2(CCCCC2)Nc2ccccc21 [RA-0001813],,,66,81,,,
Clc1cccc(CSC2=NC3(CCCCC3)Nc3ccccc32)c1 [RA-0001814],,,73,54,,,
Fc1cccc(CSC2=NC3(CCCCC3)Nc3ccccc32)c1 [RA-0001815],,,81,77,,,
O=C(C1CCCN(c2ccc(Sc3ccc(Br)cc3)nn2)C1)N1CCSCC1 (stereo not shown) [RA-0001816],,1.2,67,71,7.2,,
CN(Cc1ccco1)c1nc(-c2ccc(Cl)cc2)nc2ccccc12 [RA-0001817],,,49,56,,,
O=C(CSc1nnc2c(=O)n(-c3cccc(F)c3)ccn12)c1c[nH]c2ccccc12 [RA-0001818],,,50,145,,,
COc1cc(Cl)c(NS(=O)(=O)c2c(C)sc(C)c2-c2[nH]nc(C)c2C)c(OC)c1 [RA-0001819],0.6,0.7,66,72,,,12.5
O=c1cc(-c2ccc(O)c(O)c2)oc2cc(O)cc(O)c12 [RA-0001820],,,60,62,,,
Cc1ccnc(OC2CCOC3(CCN(C(=O)C4(c5ccccc5)CCCC4)CC3)C2)c1 (stereo not shown) [RA-0001821],,1.25,70,65,4,,14.2
CS(=O)(=O)NCC1CCOC2(CCN(C(=O)C3(c4ccccc4)CCCC3)CC2)C1 (stereo not shown) [RA-0001822],2.3,0.85,84,81,,,236
Cc1nc(CC2CCOC3(CCN(C(=O)C4(c5ccccc5)CCCC4)CC3)C2)no1 (stereo not shown) [RA-0001823],1.5,0.87,78,82,,,202
Cc1ncc2c(n1)COC21CN(C(=O)C2(c3ccccc3)CCCC2)C1 [RA-0001824],5.6,0.43,79,69,,,
